Series [1] is described as follows: Metabolism rate, pmol/min/mg at 1 μM, dog. Conditions: 1 μM compound. The format is in vitro ADME.
Series [2] in a line: Metabolism rate, pmol/min/mg at 1 μM, rat female. The format is in vitro ADME. The settings on record: 1 μM compound.
Series [3] can be described thus: Metabolism rate, pmol/min/mg at 1 μM, human. The format is in vitro ADME. The settings on record: 1 μM compound.
Series [4] has as its system LH levels in castrated rats. Briefly: Castrated male rat model, LH suppression. In kind it is in vivo. The method, boiled down:
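Castrated male Sprague-Dawley rats, catheterised, given vehicle or compound iv, im, ip, sc or po after basal sampling (one protocol: 10 mg/kg iv in 10% DMSO/10% cremophor/saline). Blood drawn at multiple times up to 240 min. Serum or plasma LH measured by coated-tube immunoradiometric assay.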

Series [5] can be described thus: Metabolism rate, pmol/min/mg at 1 μM, monkey. In kind it is in vitro ADME. Conditions: 1 μM compound.
Another series concerns the target 5-HT7 (Homo sapiens, UniProt P34969). Kind of series: Selectivity: 5-HT7.
For the next series, the target named is 5-HT2a (Homo sapiens, UniProt P28223). Kind of series: Selectivity: 5-HT2a.
Sequence of 5-HT2a (P28223 whole entry, species assumed): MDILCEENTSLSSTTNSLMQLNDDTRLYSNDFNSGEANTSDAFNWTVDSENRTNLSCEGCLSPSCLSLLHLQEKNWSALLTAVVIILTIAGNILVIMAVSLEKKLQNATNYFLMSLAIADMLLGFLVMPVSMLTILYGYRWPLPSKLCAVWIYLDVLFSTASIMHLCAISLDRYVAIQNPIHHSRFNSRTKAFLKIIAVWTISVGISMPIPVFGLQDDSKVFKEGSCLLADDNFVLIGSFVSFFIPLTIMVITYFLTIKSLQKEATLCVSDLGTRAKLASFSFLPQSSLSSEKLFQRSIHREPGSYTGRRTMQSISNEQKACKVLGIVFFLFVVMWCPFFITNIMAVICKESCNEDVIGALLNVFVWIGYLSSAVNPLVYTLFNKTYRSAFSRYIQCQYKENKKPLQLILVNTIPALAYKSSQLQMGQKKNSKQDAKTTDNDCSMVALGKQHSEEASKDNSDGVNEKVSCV

Sequence of 5-HT7 (P34969 whole entry, species assumed): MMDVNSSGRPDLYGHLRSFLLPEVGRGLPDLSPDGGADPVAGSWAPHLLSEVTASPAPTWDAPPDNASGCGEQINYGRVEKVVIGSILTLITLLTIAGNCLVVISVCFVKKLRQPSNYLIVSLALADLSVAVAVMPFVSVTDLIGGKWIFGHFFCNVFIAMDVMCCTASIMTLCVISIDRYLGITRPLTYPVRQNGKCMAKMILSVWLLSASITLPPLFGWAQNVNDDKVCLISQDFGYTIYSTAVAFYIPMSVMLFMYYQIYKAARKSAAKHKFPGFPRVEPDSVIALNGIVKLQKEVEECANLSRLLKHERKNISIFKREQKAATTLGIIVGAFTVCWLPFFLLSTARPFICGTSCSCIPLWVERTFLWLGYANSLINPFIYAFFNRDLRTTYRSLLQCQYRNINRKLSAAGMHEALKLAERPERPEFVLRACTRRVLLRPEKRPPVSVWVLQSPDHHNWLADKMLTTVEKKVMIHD

Consider `COc1cc(OC)c(NC(=O)c2ccc(Cc3cc4c(cc3C)C(C)(C)CCC4(C)C)o2)c(OC)c1` [Compound 134], for which the “Dog pmol/min/mg 1 μM” value in series [1] was determined as 2159 pmol/min/mg. The “Rat female pmol/min/mg 1 μM” value in series [2] is recorded as 94 pmol/min/mg. Moreover, in series [3], the “Human pmol/min/mg 1 μM” value amounted to 630 pmol/min/mg. For the same compound, the “% Max LH Suppression” value in series [4] (1.0 mg/kg iv) is given as 24%; in series [4] (5.0 mg/kg iv), 70%; in series [4] (10 mg/kg iv), 100%; in series [4] (20 mg/kg im), 73%; in series [4] (20 mg/kg ip), 80%; in series [4] (20 mg/kg po), 62%. Further, the “% Max LH Suppression” value in series [4] (20 mg/kg sc) was determined as 53%; in series [4] (100 mg/kg im), 98%; in series [4] (100 mg/kg ip), 98%; in series [4] (100 mg/kg po) it was 84%; in series [4] (100 mg/kg sc) it was 80%. Besides, the “time of % Max LH Suppression” value is 0.5 h in series [4] (1.0 mg/kg iv); 0.5 h in series [4] (5.0 mg/kg iv); 0.5 h in series [4] (10 mg/kg iv); 2 h in series [4] (20 mg/kg im); 2 h in series [4] (20 mg/kg ip); 4 h in series [4] (20 mg/kg po). In addition, the “time of % Max LH Suppression” value in series [4] (20 mg/kg sc) is 8 h; in series [4] (100 mg/kg im), 2 to 24 h; in series [4] (100 mg/kg ip), 4 h; in series [4] (100 mg/kg po) it was 4 h; in series [4] (100 mg/kg sc), 6 h. In addition, the “≧50% Suppression Duration” value in series [4] (10 mg/kg iv) stood at 2 h; in series [4] (20 mg/kg im), 8 h; in series [4] (20 mg/kg ip), 4 h; in series [4] (20 mg/kg po), 4 h; in series [4] (20 mg/kg sc), 8 h; in series [4] (100 mg/kg im), 24 h. The “≧50% Suppression Duration” value in series [4] (100 mg/kg ip), in series [4] (100 mg/kg po) and in series [4] (100 mg/kg sc) was 8 h throughout. In addition, the “LH in CX rats” value is listed as “suppresses LH” in series [4] (20 mg/kg im); “dose-dependent suppression of LH” in series [4] (1.0, 5.0 & 10 mg/kg, iv); “suppresses LH” in series [4] (20 or 100 mg/kg, ip). In series [5], the “Monkey pmol/min/mg 1 μM” value amounted to 9277 pmol/min/mg. Further, the inhibition constant Ki (commonly the dissociation constant of the complex between target and ligand, obtained from inhibition or displacement) on 5-HT7 was greater than 4.4 µM; on 5-HT2a, 3.72 µM.

Regarding `Cc1cc2c(cc1Cc1ccc(C(=O)NCc3cccc(CNc4ccnc(NC[C@@H]5CCCO5)n4)c3)o1)C(C)(C)CCC2(C)C` [Compound 136], in series [1], the “Dog pmol/min/mg 1 μM” value was determined as 3071 pmol/min/mg. The “Rat female pmol/min/mg 1 μM” value in series [2] is given as 271 pmol/min/mg. The “Human pmol/min/mg 1 μM” value in series [3] is reported as 191 pmol/min/mg. The “% Max LH Suppression” value in series [4] (5.0 mg/kg iv) stood at 48%; in series [4] (10 mg/kg iv), 74%; in series [4] (20 mg/kg iv) it was 98%. Also, the “time of % Max LH Suppression” value in series [4] (5.0 mg/kg iv) turned out to be 1 h; in series [4] (10 mg/kg iv), 2 h; in series [4] (20 mg/kg iv), 4 h. The “≧50% Suppression Duration” value in series [4] (5.0 mg/kg iv) was 1.0 h; in series [4] (10 mg/kg iv), 6 h; in series [4] (20 mg/kg iv) it was “≧6 hr”. Besides, the “Range of Plasma Conc.” value in series [4] (20 mg/kg po) amounted to 0.29 µM; in series [4] (40 mg/kg po), 0.72 µM. For the same compound, the “Monkey pmol/min/mg 1 μM” value in series [5] was 5959 pmol/min/mg. Also, the Ki at 5-HT7 was 2.4 µM.

For the compound `COc1cc(OC)c(NC(=O)c2ccc(Cc3cc4c(cc3OC)C(C)(C)CCC4(C)C)o2)c(OC)c1` [Compound 169], the “Dog pmol/min/mg 1 μM” value in series [1] is listed as 2301 pmol/min/mg. Moreover, the “Human pmol/min/mg 1 μM” value in series [3] was 589 pmol/min/mg. In addition, the “Monkey pmol/min/mg 1 μM” value in series [5] came to 5940 pmol/min/mg. The compound also yielded a Ki at 5-HT2a of 2.71 µM.

In the case of `COc1cc(OC)c(NC(=O)c2ccc(Cc3cc4c(cc3C)C(C)(C)CCC4(C)C)o2)c(OC)c1C#N` [Compound 177], the “Dog pmol/min/mg 1 μM” value in series [1] is given as 2456 pmol/min/mg. Also, the “Human pmol/min/mg 1 μM” value in series [3] was 876 pmol/min/mg. The “Monkey pmol/min/mg 1 μM” value in series [5] was found to be 3120 pmol/min/mg.

For the origin of these results see patent publication US7101878B1 (Agouron Pharmaceuticals, Inc., priority 1998, dated 2006).
